Assays:
HUVECs = test: HUVEC differentiation and organization into tubular-like structures in fibrin matrix; type: cell-based, Human; settings: 21 days in culture
Method: Alternatively, HUVECs cultured in a fibrin matrix can form 3-dimensional tubular-like structures in the presence of serum (103). This assay was performed in the presence of either bpV(phen), bpv(pic) or vanadate to assess the influence of each one of these compounds on HUVEC differentiation and organization (Table 1). HUVECs were seeded on the bottom of gelatin-coated wells at high density to provide a confluent monolayer at 48 hours.
Then, 50 000 HUVECs/ml were embedded in fibrinogen solution prior to polymerization. The fibrin matrix was covered with culture medium containing the molecule to be tested, while culture medium without any of these molecules served as controls. Cell behavior was observed periodically by phase contrast microscopy.

[1] = system: vitelline membrane of chick embryos; test: Embryonic vascularization test (EVT) ex ovo; type: in vivo
Description: FIG. 2: A and B show an anti-angiogenic response to bpV(phen), orthovanadate (Van) and protamine (Prot) using a vascularization test on the vitelline membrane of chick embryos. Each point represents a minimum of 15 embryos (15 to 28).
The normal development of a chick embryo involves the formation of an external vascular system which is located in the vitelline membrane and which carries nutrients from the vitellus (yolk of the egg) to the developing embryo. When placed onto the vitelline membrane, anti-angiogenic substances can inhibit blood vessel development in the vitelline membrane. To facilitate access to the vitelline membrane, chick embryos were transferred to a sterile culture box (Petri dish) and placed in a humidity- and temperature-controlled incubator. Embryos could then develop in this ex ovo condition for several days.
An aliquot of the tested compound was mixed with a methylcellulose solution and allowed to air-dry into thin discs. Methylcellulose forms an inert matrix from which the tested compound can diffuse slowly. Methylcellulose discs containing the tested compound were placed on the external border of the vascular perimeter of the vitelline membrane where the angiogenic process was still active.
The effects of the discs containing the tested compound on proximal vascular development were, in all cases, compared with those of discs containing control buffer. The discs were placed on the embryos' vitelline membrane on Day 0 or Day 1 of the ex ovo growth process; at this point, only beginnings of the main blood vessels are invading the vitellus. The embryos were then put in culture conditions until vascularization was assessed (approximately 24 h). Control buffer- and compound-containing discs were in all cases added simultaneously on the vitelline membrane of the same embryo. Both discs were arranged in a symmetrical fashion with respect to the cephalo-caudal axis of the embryo in order to minimize inter-individual variations when comparing the tested compounds with controls.
[…] After one day in culture, the level of vascularization in the area covered by the discs was graded by a pair of scientists in the usual blind fashion. To facilitate the location of the discs, black O-rings were placed around them just after their placement on the vitelline membrane. The evaluation scale for the EVTs was based on two different scoring systems.
Blood vessel formation was assessed in a blind fashion. The areas of the vitelline membranes that lay beneath the methylcellulose discs were scored for the degree of vascularization, using two scoring systems (“N/+” or “1-2-3”). The following selection criteria were used:
A score of “N” for “Normal” was attributed when all the following conditions were met:
Blood vessels in the evaluated area grew along their path with no abnormal deviation. Collateral branching density was normal and the growth path of the lateral branches was also normal.
A score of “+” was attributed when at least one of the following conditions was met:
1-2-3 Grading Scale System:
A score of 3 was attributed when the following conditions were met:
A score of 2 was attributed when at least one of the following conditions was met:
A score of 1 was attributed when at least one of the following conditions was met:
A score of 3 meant that blood vessel development was normal whereas a score of 1 indicated the greatest degree of angiostatic activity.

[2] = system: ZR-75-1 human breast cancer; test: ZR-75-1 human breast cancer xenograft; type: in vivo, Female homozygous HSD nu/nu athymic mice; settings: 2.5 mg/Kg daily i.p., 42 days; E1 replacement
Method: A) ZR-75-1 human breast cancer: ZR-75-1 human breast cancer cells obtained from the American Tissue Culture Collection (Rockville, Md.) were cultured in phenol red-free RPMI 1640. […] Female homozygous HSD nu/nu athymic mice (50 days old) were obtained from Harlan Sprague Dawley Inc. (Indianapolis, Ind.). Five mice were housed per vinyl cage, which was equipped with air filter lids and kept in laminar air flow hoods under pathogen-limiting conditions. The photoperiod was composed of a period of 14 h of light and a period of 10 h of darkness. Cages, bedding, and food (Agway Pro-Lab R-M-H diet #4018) were autoclaved prior to use. […] Bilateral ovariectomy (OVX) was performed on all animals one week prior to cell inoculation, under 2.5% isoflurane anesthesia mixed with oxygen. Simultaneously, an oestrogen (E2) implant was inserted subcutaneously to stimulate […] tumor growth and appearance. E2 implants were prepared in 1-cm long silastic tubing (inside diameter, 0.062 inch; outside diameter, 0.095 inch) containing 0.5 cm of estradiol/cholesterol diluted at a ratio of 1:10 (w:w). […] Statistical significance of treatment effect was assessed by repeated measures ANOVA after applying a power transformation to equalize residual variances and linearize the tumor growth curves.

O.O.O.OO.OO.[K+].[OH-].[V].c1cnc2c(c1)ccc1cccnc12 [bpV(phen), potassium bisperoxo(1,10-phenanthroline)oxovanadate]
structures observed by phase contrast microscopy (HUVECs; 1 μM): cord-like structures (or cords), tube-like structures (or tubes) and stellate structures (or Stell.struct.) were observed | structures observed by phase contrast microscopy (HUVECs; 2 and 3.5 μM): fragmented cord-like structures were apparent | Anti-angio.activity 1 to 3 (1: no angiogenesis; 3: normal angiogenesis) ([1]; 0.001 μg, Assay 1): 2.7 | Anti-angio.activity % (proportion of embryos showing an anti-angiogenic response) ([1]; 0.001 μg, Assay 1): 12% | Anti-angio.activity 1 to 3 (1: no angiogenesis; 3: normal angiogenesis) ([1]; 0.001 μg, Assay 2): 2.4 | Anti-angio.activity % (proportion of embryos showing an anti-angiogenic response) ([1]; 0.001 μg, Assay 2): 20% | Anti-angio.activity 1 to 3 (1: no angiogenesis; 3: normal angiogenesis) ([1]; 0.001 μg, Assay 5): 2.6 | Anti-angio.activity % (proportion of embryos showing an anti-angiogenic response) ([1]; 0.001 μg, Assay 5): 16% | Anti-angio.activity 1 to 3 (1: no angiogenesis; 3: normal angiogenesis) ([1]; 0.01 μg, Assay 1): 2.3 | Anti-angio.activity % (proportion of embryos showing an anti-angiogenic response) ([1]; 0.01 μg, Assay 1): 31% | Anti-angio.activity 1 to 3 (1: no angiogenesis; 3: normal angiogenesis) ([1]; 0.01 μg, Assay 2): 2.5 | Anti-angio.activity % (proportion of embryos showing an anti-angiogenic response) ([1]; 0.01 μg, Assay 2): 19% | Anti-angio.activity 1 to 3 (1: no angiogenesis; 3: normal angiogenesis) ([1]; 0.01 μg, Assay 5): 2.4 | Anti-angio.activity % (proportion of embryos showing an anti-angiogenic response) ([1]; 0.01 μg, Assay 5): 25% | Anti-angio.activity 1 to 3 (1: no angiogenesis; 3: normal angiogenesis) ([1]; 0.1 μg, Assay 1): 1.8 | Anti-angio.activity % (proportion of embryos showing an anti-angiogenic response) ([1]; 0.1 μg, Assay 1): 61% | Anti-angio.activity 1 to 3 (1: no angiogenesis; 3: normal angiogenesis) ([1]; 0.1 μg, Assay 2): 2.2 | Anti-angio.activity % (proportion of embryos showing an anti-angiogenic response) ([1]; 0.1 μg, Assay 2): 45% | Anti-angio.activity 1 to 3 (1: no angiogenesis; 3: normal angiogenesis) ([1]; 0.1 μg, Assay 5): 2.0 | Anti-angio.activity % (proportion of embryos showing an anti-angiogenic response) ([1]; 0.1 μg, Assay 5): 53% | Anti-angio.activity 1 to 3 (1: no angiogenesis; 3: normal angiogenesis) ([1]; 1 μg, Assay 1): 1.6 | Anti-angio.activity % (proportion of embryos showing an anti-angiogenic response) ([1]; 1 μg, Assay 1): 86% | Anti-angio.activity 1 to 3 (1: no angiogenesis; 3: normal angiogenesis) ([1]; 1 μg, Assay 2): 1.1 | Anti-angio.activity % (proportion of embryos showing an anti-angiogenic response) ([1]; 1 μg, Assay 2): 100% | Anti-angio.activity 1 to 3 (1: no angiogenesis; 3: normal angiogenesis) ([1]; 1 μg, Assay 4): 1.0 | Anti-angio.activity % (proportion of embryos showing an anti-angiogenic response) ([1]; 1 μg, Assay 4): 96% | Anti-angio.activity 1 to 3 (1: no angiogenesis; 3: normal angiogenesis) ([1]; 1 μg, Assay 5): 1.2 | Anti-angio.activity % (proportion of embryos showing an anti-angiogenic response) ([1]; 1 μg, Assay 5): 94% | approximate IC50, neovascularization (regardless of the scoring system) ([1]; per methylcellulose disc): ~0.1 µg | tumor size [2]: do not resulted in increase of tumor size
